According to US11718592B2, “Oxadiazole derivative” (Sumitomo Pharma Co., Ltd., priority 2020, dated 2023):

Tests used:
Slc: ddy male mice = details: mouse, in vivo, po, 100 mg/kg, 1 h
Method: The present test is a test for evaluating whether the test compound may disturb coordinated movement or not. Rotarod is an apparatus equipped with a rotating columnar bar whose diameter is 4 cm, in which a mouse is made to walk on the rotating bar, and the coordinated movement is evaluated from the result of walking (can walk or cannot walk). Slc: ddy male mice (purchased from Japan SLC, Inc., body weight: 20-30 g) were trained 3 hours before the test starts so that they could walk on a rotarod apparatus rotating with a speed of 12 rotations per minute for 5 minutes without falling. Only the mice which can walk in the training are used in the test. The test compound was orally administered to a group consisting of 5 mice. […] To control mice, 0.5% methylcellulose solution was administered as test compound, and the same test was also done. The coordinated movement was evaluated with the average of the five mice's walking time (second).

GABA(A) receptors = test: Evaluation of the potentiating effect on GABA(A) receptors (electrophysiology, GABA(A) receptor expressing cells); format: cell-based; details: for The potentiating effect on GABA(A) receptors EC20: concentration giving 20% increase of the current generated by 2 μM GABA; for Inhibition rate to the increased electric current by adding flumazenil: 2 μM GABA and test compound with 10 μM flumazenil
Method: Using GABA(A) receptor expressing cells prepared according to Guideline for Generation of Stable Cell Lines (website of Lonza Japan; Non-patent Literature 4), the present test is done for evaluating the potentiating effect of a drug on GABA(A) receptors based on the electric current raised by GABA. The GABA(A) receptor expressing cells were used in electrophysiological study, wherein the electric current was measured when 2 μM GABA solution and then a mixture of 2 μM GABA and the test compound were added to the cells. […] In addition, the electric current generated by a mixture of 2 μM GABA solution and the test compound with 10 μM flumazenil was measured, and the inhibition rate for the electric current by adding flumazenil was calculated compared to the electric current obtained in the absence of flumazenil.

SMILES | average of the five mice's walking time (Slc: ddy male mice) [s] | The potentiating effect on GABA(A) receptors EC20 (GABA(A) receptors) [µM] | Inhibition rate to the increased electric current by adding flumazenil (GABA(A) receptors) [%] | inhibition of the potentiating effect on GABA(A) receptors with flumazenil (in words) (GABA(A) receptors; flumazenil, benzodiazepine antagonist)
CC(C)(C(N)=O)c1nc(-c2ccc(F)cc2)no1 [Example 1, 2-[3-(4-Fluorophenyl)-1,2,4-oxadiazol-5-yl]-2-methylpropanamide] | 180 | 55 |  | 
NC(=O)C1(c2nc(-c3ccc(F)cc3)no2)CC1 [Example 4, 1-[3-(4-fluorophenyl)-1,2,4-oxadiazol-5-yl]cyclopropane-1-carboxamide] | 180 | >100 |  | 
NC(=O)C1(c2nc(-c3ccc(Cl)cc3)no2)CC1 [Example 5, 1-[3-(4-chlorophenyl)-1,2,4-oxadiazol-5-yl]cyclopropane-1-carboxamide] | 180 | >300 |  | 
NC(=O)C1(c2nc(-c3ccc(Cl)cc3)no2)CC(F)C1 (stereo not drawn) [Example 6, 1-[3-(4-chlorophenyl)-1,2,4-oxadiazol-5-yl]-3-fluorocyclobutane-1-carboxamide] | 180 | 3.3 |  | 
NC(=O)C1(c2nc(-c3ccc(Cl)cc3)no2)CC(F)(F)C1 [Example 7, 1-[3-(4-chlorophenyl)-1,2,4-oxadiazol-5-yl]-3,3-difluorocyclobutane-1-carboxamide] | 180 | 5.4 |  | 
NC(=O)C1(c2nc(-c3ccc(Cl)cc3)no2)CCC1 [Example 8, 1-[3-(4-chlorophenyl)-1,2,4-oxadiazol-5-yl]cyclobutane-1-carboxamide] | 180 | 3.2 |  | 
NC(=O)C1(c2nc(-c3ccc(Cl)cc3)no2)CCCC1 [Example 9, 1-[3-(4-chlorophenyl)-1,2,4-oxadiazol-5-yl]cyclopentane-1-carboxamide] | 180 | 2.7 |  | 
NC(=O)C1(c2nc(-c3ccc(F)cc3)no2)CCOCC1 [Example 10, 4-[3-(4-fluorophenyl)-1,2,4-oxadiazol-5-yl]tetrahydro-2H-pyran-4-carboxamide] | 180 | 247 |  | 
CC(C)(C(N)=O)c1noc(-c2ccc(F)cc2)n1 [Example 12, 2-[5-(4-fluorophenyl)-1,2,4-oxadiazol-3-yl]-2-methylpropanamide] | 180 | 234 |  | 
CC(C)(C(N)=O)c1noc(-c2ccc(Br)cc2)n1 [Example 14, 2-[5-(4-bromophenyl)-1,2,4-oxadiazol-3-yl]-2-methylpropanamide] | 180 | 32 |  | 
CC(C)(C(N)=O)c1nnc(-c2ccc(Cl)cc2)o1 [Example 15, 2-[5-(4-chlorophenyl)-1,3,4-oxadiazol-2-yl]-2-methylpropanamide] | 180 | >300 |  | 
CC(C)(c1nc(-c2ccc(F)cc2)no1)S(N)(=O)=O [Example 17, 2-[3-(4-Fluorophenyl)-1,2,4-oxadiazol-5-yl]propane-2-sulfonamide] | 180 | 45 |  | 
CC(C)(c1nc(-c2ccc(Cl)cc2)no1)S(N)(=O)=O [Example 18, 2-[3-(4-chlorophenyl)-1,2,4-oxadiazol-5-yl]propane-2-sulfonamide] | 180 | 37 | <0 | 
CN1C(=O)CC(=O)N(c2ccccc2)c2cc(Cl)ccc21 [clobazam, reference compound] |  | 0.34 | 88 | strongly inhibited
